# From patent US20150276767A1, “SYSTEMS AND METHODS FOR IDENTIFYING CANCERS HAVING ACTIVATED PROGESTERONE RECEPTORS” (THE UNIVERSITY OF SYDNEY, priority 2014, published 2015)
# Assays:
# [1] = tested on: progestin-regulated genes in T-47D cells; assay: Expression profiling in T-47D cells; type: cell-based, human
# Experimental: (§1) Total RNA was isolated using RNAqueous purification columns (Invitrogen). Total RNA (500 ng) was amplified and biotin labelled using Illumina TotalPrep reagents (Invitrogen). The amplified samples (750 ng) were hybridized to human whole genome HT-12 gene expression bead arrays using the recommended Illumina reagents and following the manufacturer's protocol. Raw data were analysed using Genome Studio software (Illumina). After background subtraction data and cubic spline normalization, differential expression p values were determined using the Illumina custom model of Genome Studio. Data were further analysed using Microsoft Excel and SPSS statistical software. Hierarchical clustering and self organizing map clustering were performed using GenePattern.
# (§2) Onapristone ablated progestin regulation of all but 5 genes in T-47D and 6 genes in HCC1428.
# [2] = tested on: progesterone receptor (PR) binding to genomic regions in T-47D breast cancer cells; assay: ChIP-PCR of PR binding regions in T-47D cells; type: cell-based, human
# Experimental: Cells were cultured to 80% confluency in 15 cm tissue culture dishes, then treated for 45 minutes with 10 nM ORG2058 or vehicle. Chromatin was subsequently cross-linked by the addition of formaldehyde to the culture medium to a final concentration of 1% and incubation for 10 minutes at 37° C. Media were immediately removed and the cells were washed with cold phosphate buffered saline and harvested by scraping. Cells were collected by centrifugation and pellets were lysed 10 minutes at 4° C. in SDS buffer (1% SDS; 10 mM EDTA; 50 mM Tris-HCl, pH 8). The lysates were sonicated at 4° C. with a Branson 450 sonicator, using seven one minute bursts at 40% amplitude and 60% duty, each separated by a rest of at least one minute. Lysates were centrifuged at 13,000×g at 4° C. for 15 minutes to remove debris. […] Supernatants were diluted 1:10 with IP buffer (0.5% NP-40; 50 mM Tris, pH 8; 120 mM NaCl; 0.5 mM PMSF; Complete protease inhibitor cocktail, Roche, Ryde, Australia) and pre-cleared by incubation with Dynabeads M-280 sheep anti-mouse IgG magnetic beads (Invitrogen, Mulgrave, Australia), with gentle rotation at 4° C. for at least 2 h to reduce non-specific binding to the secondary antibody beads. Genomic DNA fragments that were bound to PR were isolated by rotation overnight at 4° C. with in-house hPRa6 and hPRa7 mouse monoclonal anti-PR antibodies and fresh sheep anti-mouse IgG magnetic beads (40 ul per 1.4 ml diluted lysate). Beads were washed sequentially with IP buffer, high salt wash buffer (0.5% NP-40, 50 mM Tris, pH 8, 500 mM NaCl, 0.5 mM PMSF), lithium wash buffer (250 mM LiCl, 0.5% NP-40, 1% sodium deoxycholate, 1 mM EDTA, pH 8, 10 mM Tris-HCl, pH 8) and TE (10 mM Tris, pH 8, 1 mM EDTA). Isolated DNA fragments were eluted twice for 15 minutes at room temperature using elution buffer (1% SDS, 0.1M NaHCO3). Cross-links were reversed by addition of 0.25M NaCl and heating to 65° C. for at least 6 h. DNA fragments were purified using Qiagen PCR purification columns (Qiagen, Doncaster, Australia). DNA fragments isolated by PR chromatin immunoprecipitation from ORG2058 treated cells were sequenced on an Illumina GA-IIx sequencer at the Ramaciotti Centre for Gene Function Analysis (University of New South Wales, Australia) and GeneWorks (Hindmarsh, Australia). Input DNA isolated from the pre-cleared ORG2058 treated samples were sequenced as a baseline control. An aliquot of DNA was isolated from the ORG2058-treated, pre-cleared sample, to serve as an input DNA control sample in next-generation sequencing.
# (§3) Directed ChIP was performed using the same protocol as described for ChIP-seq. Target templates were quantitated using Platinum Sybr Green reagents (Invitrogen) in a RotorGene 6000 real-time PCR machine. Directed ChIP was carried out as described above and purified gDNA fragments were diluted 2 to 5-fold prior to quantitation by real-time qPCR.
# We conducted ChIP-PCR in T-47D cells and a second breast cancer cell line HCC1428, with ORG2058, onapristone, their combination or vehicle. The concentrations used were 1 nM ORG2058 and 100 nM onapristone.
# [3] = tested on: progesterone receptor (PR) binding to genomic regions in HCC1428 breast cancer cells; assay: ChIP-PCR of PR binding regions in HCC1428 cells; type: cell-based, human
# Experimental: Cells were cultured to 80% confluency in 15 cm tissue culture dishes, then treated for 45 minutes with 10 nM ORG2058 or vehicle. Chromatin was subsequently cross-linked by the addition of formaldehyde to the culture medium to a final concentration of 1% and incubation for 10 minutes at 37° C. Media were immediately removed and the cells were washed with cold phosphate buffered saline and harvested by scraping. Cells were collected by centrifugation and pellets were lysed 10 minutes at 4° C. in SDS buffer (1% SDS; 10 mM EDTA; 50 mM Tris-HCl, pH 8). The lysates were sonicated at 4° C. with a Branson 450 sonicator, using seven one minute bursts at 40% amplitude and 60% duty, each separated by a rest of at least one minute. Lysates were centrifuged at 13,000×g at 4° C. for 15 minutes to remove debris. […]
# as §3, with “qPCR. […]” for “qPCR.”
# [4] = tested on: progestin-regulated genes in HCC1428 cells; assay: Expression profiling in HCC1428 cells; type: cell-based, human; conditions: onapristone with 1 nM ORG2058
# Experimental: as §1, §2
# PR = biological target: T1, PR (Homo sapiens, UniProt P06401); conditions: relative to the synthetic analogue ORG2058; cited from earlier work
# T1 sequence (P06401 1-933): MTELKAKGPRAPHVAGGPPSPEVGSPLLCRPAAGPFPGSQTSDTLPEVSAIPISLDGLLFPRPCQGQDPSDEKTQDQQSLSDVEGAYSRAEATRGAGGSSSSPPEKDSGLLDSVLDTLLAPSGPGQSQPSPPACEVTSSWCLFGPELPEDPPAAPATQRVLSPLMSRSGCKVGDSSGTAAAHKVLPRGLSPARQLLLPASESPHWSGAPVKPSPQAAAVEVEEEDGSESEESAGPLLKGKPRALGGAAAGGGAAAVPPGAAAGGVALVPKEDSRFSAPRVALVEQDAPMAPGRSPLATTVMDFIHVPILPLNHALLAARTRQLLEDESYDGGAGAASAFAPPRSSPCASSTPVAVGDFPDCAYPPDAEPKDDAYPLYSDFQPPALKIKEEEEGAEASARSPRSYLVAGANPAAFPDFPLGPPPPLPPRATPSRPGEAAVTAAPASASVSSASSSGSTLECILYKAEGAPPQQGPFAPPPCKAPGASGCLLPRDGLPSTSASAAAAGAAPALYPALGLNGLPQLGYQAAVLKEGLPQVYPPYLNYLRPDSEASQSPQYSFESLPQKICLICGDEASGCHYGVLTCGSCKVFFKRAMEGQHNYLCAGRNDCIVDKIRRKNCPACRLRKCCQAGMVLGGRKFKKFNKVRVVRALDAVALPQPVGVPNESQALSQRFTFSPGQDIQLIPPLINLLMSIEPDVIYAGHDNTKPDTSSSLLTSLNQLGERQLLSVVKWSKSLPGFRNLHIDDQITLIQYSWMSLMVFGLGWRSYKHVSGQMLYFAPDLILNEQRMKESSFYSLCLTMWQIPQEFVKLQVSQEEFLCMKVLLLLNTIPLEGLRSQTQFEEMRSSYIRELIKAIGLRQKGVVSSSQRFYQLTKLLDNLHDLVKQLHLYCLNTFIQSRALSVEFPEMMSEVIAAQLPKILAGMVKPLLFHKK
# [5] = 1 nM ORG2058, in one or both cell lines (T-47D, HCC1428)
structure (smiles),measurement,setting,value
"CC[C@@H]1C[C@H]2[C@@H]3CCC4=CC(=O)CC[C@@H]4[C@H]3CC[C@]2(C)[C@H]1C(=O)CO [ORG2058, (8R,9S,10R,13S,14S,16R,17S)-16-ethyl-17-(2-hydroxyacetyl)-13-methyl-2,6,7,8,9,10,11,12,14,15,16,17-dodecahydro-1H-cyclopenta[a]phenanthren-3-one]",Differentially expressed probes,[1]; [5],309 probes
same,Genes regulated,[1]; [5],267 genes
same,ORG effects at the concentration used (preliminary experiments),"[2]; 1 nM ORG2058, cell line of preliminary experiments not stated",maximal
same,PR binding regions with binding by ORG2058-liganded PR confirmed,"[2]; T-47D, 1 nM ORG2058, ten regions tested",9 of the 10
same,PR binding regions with binding by ORG2058-liganded PR confirmed,"[3]; 1 nM ORG2058, ten regions tested",9 of the 10
"CN(C)c1ccc([C@H]2C[C@]3(C)[C@@H](CC[C@]3(O)CCCO)[C@@H]3CCC4=CC(=O)CCC4=C32)cc1 [onapristone, (8S,11R,13R,14S,17S)-11-[4-(dimethylamino)phenyl]-17-hydroxy-17-(3-hydroxypropyl)-13-methyl-1,2,6,7,8,11,12,14,15,16-decahydrocyclopenta[a]phenanthren-3-one]",Genes whose progestin regulation was not ablated by onapristone,"[1]; T-47D, onapristone with 1 nM ORG2058",5 genes
same,PR binding in the presence of onapristone alone,"[2]; 100 nM onapristone alone, mainly in T-47D cells",PR binding to some targets
same,Effect of onapristone on ORG effects (preliminary experiments),"[2]; 100 nM onapristone with 1 nM ORG2058, cell line of preliminary experiments not stated",ablated
same,PR binding regions with attenuation of ORG2058-liganded PR binding by onapristone confirmed,"[2]; T-47D, 100 nM onapristone + 1 nM ORG2058, ten regions tested",9 of the 10 and attenuated
same,Genes whose progestin regulation was not ablated by onapristone,[4],6 genes
same,PR binding regions with attenuation of ORG2058-liganded PR binding by onapristone confirmed,"[3]; 100 nM onapristone + 1 nM ORG2058, ten regions tested",9 of the 10 and attenuated
CC(=O)[C@H]1CC[C@H]2[C@@H]3CCC4=CC(=O)CC[C@]4(C)[C@H]3CC[C@]12C [progesterone],Dissociation from PR compared with ORG2058,PR,more rapidly
